The values below come from patent publication US20210369642A1, “THERAPEUTIC CANNABINOID DERIVATIVES COMPOSITION AS HISTAMINE 2 (H2) BLOCKING AGENTS” (priority 2018, published 2021).

Each structure is given as a SMILES string.

Holding throughout (type): cell-based
The target of test [1] is T1, HRH1 (Homo sapiens, UniProt P35367). Description: Calcium Flux assay, agonist mode. The note with it: for % Response Average / % Response Replicate 1 / % Response Replicate 2: 10 uM, Calcium Flux, HRH1, Agonist mode. (A change in cytosolic calcium serves as a functional read-out for many receptors and channels.)
T1 sequence (P35367 whole entry): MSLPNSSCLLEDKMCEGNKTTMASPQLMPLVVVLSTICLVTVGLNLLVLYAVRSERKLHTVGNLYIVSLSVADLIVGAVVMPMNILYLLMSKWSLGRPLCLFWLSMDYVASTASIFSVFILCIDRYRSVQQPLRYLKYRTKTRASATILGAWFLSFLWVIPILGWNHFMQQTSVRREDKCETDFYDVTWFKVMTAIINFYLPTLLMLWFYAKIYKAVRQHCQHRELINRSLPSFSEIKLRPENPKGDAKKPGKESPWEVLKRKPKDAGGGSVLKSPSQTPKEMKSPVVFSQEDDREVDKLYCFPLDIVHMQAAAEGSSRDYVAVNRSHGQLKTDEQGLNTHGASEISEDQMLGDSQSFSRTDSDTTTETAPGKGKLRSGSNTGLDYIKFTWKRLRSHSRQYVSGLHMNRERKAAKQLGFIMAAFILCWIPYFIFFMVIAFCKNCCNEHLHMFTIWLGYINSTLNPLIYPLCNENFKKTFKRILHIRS
Test [2] has as its target T2, HRH2 (Homo sapiens, UniProt P25021). Description: H2 blockade assay: cAMP assay, antagonist mode (agonist challenge at EC80). Particulars: for antagonist activity against H2 (in words): in-vitro. The procedure:
The cAMP assays can monitor the activation of a GPCR via Gi and Gs secondary messenger signalling in a homogenous, non-imaging assay format using, for example, a technology developed by DiscoverX called Enzyme Fragment Complementation (EFC) with β-galactosidase (β-Gal) as the functional reporter.
The cannabinoid-based pharmaceutical composition according to FIG. 1 was subjected to an H2 blockade assay. For antagonist determination, cells were pre-incubated with sample followed by agonist challenge at the EC80 concentration. Media was aspirated from cells and replaced with 10 μL 1:1 BSS/Hepes: cAMP XS+ Ab reagent. 5 μL of 4X compound was added to the cells and incubated at […] or room temperature for 30 minutes. 5 μL of 4X EC80 agonist was added to cells and incubated at 37° C. or room temperature for 30 or 60 minutes.
The enzyme is split into two complementary portions, Enzyme Acceptor (EA) and Enzyme Donor (ED). ED is fused to cAMP and in the assay competes with cAMP generated by cells for binding to a cAMP-specific antibody. Active β-Gal is formed by complementation of exogenous EA to any unbound ED-cAMP.
In general terms: cAMP levels reflect the balance of adenylyl cyclase and phosphodiesterase activity.

The target of test [3] is T2, HRH2. Briefly: cAMP assay, agonist mode. Particulars: for % Response Average / % Response Replicate 1 / % Response Replicate 2: 10 uM, cAMP, HRH2, Agonist mode.
The target of test [4] is T1, HRH1. Briefly: Calcium Flux assay, antagonist mode. The note with it: for % Response Average / % Response Replicate 1 / % Response Replicate 2: 10 uM, Calcium Flux, HRH1, Antagonist mode; for antagonist activity against H1 (in words): single concentration of 10 μM.
Where [5] appears, read: 10 uM, cAMP, HRH2, Antagonist mode.

T2 sequence (P25021 whole entry, the tested form may be a part): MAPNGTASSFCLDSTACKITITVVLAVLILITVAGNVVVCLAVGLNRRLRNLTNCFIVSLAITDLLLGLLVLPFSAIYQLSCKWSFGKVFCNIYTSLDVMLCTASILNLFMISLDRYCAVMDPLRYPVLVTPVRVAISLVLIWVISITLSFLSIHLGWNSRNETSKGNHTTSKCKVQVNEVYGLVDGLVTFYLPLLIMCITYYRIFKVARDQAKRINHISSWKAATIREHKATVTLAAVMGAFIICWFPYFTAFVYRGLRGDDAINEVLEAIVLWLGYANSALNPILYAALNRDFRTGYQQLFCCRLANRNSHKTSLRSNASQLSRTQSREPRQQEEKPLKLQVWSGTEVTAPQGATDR

The term IC50 denotes the concentration that gives 50% inhibition. A low value points to greater potency. For the compound `C=C(C)[C@@H]1CCC(C)=C[C@H]1c1c(O)cc(CCCCC)cc1O` [CBD, Cannabidiol], at HRH1 [1], the “% Response Average” value was determined as 0.3%, the “% Response Replicate 1” value is 0.3% and the “% Response Replicate 2” value was 0.2%. Moreover, on HRH1 [1] (single concentration of 10 μM), the “agonist activity against H1 (in words)” value was “no agonist or antagonist activity”. The same compound displayed an IC50 on HRH2 [2] (dose-response / concentration dependent assay) of 1530 nM. On HRH2 [2], the “antagonist activity against H2 (in words)” value is given as “potent antagonist”. For the same compound, the inhibition at 10 µM at HRH2 [2] (preliminary assay, single concentration of 10 μM, read-out: inhibited H2 by %) is 91.5%. For the same compound, on HRH2 [3], the “% Response Average” value is 5.1%, the “% Response Replicate 1” value is on record as 4.7% and the “% Response Replicate 2” value worked out at 5.5%. In addition, at HRH2 [3] (single concentration of 10 μM), the “agonist activity against H2 (in words)” value is “no agonist activity”. At HRH1 [4], the “% Response Average” value is recorded as 10.1%, the “% Response Replicate 1” value was found to be 7.6%, the “% Response Replicate 2” value is 12.5% and the “antagonist activity against H1 (in words)” value was “no agonist or antagonist activity”.
With `CCCCCc1cc(O)c2c(c1)OC(C)(C)[C@@H]1CCC(C)=C[C@@H]21` [THC, Tetrahydrocannabinol, reference compound], at HRH1 [1], the “% Response Average” value is recorded as −0.7%, the “% Response Replicate 1” value is −0.5% and the “% Response Replicate 2” value is reported as −0.9%. Moreover, at HRH2 [2] (setting [5]), the “% Response Average” value was found to be 7.7%, the “% Response Replicate 1” value was −2.0% and the “% Response Replicate 2” value stood at 17.3%. Also, the “antagonist activity against H2 (in words)” value at HRH2 [2] is “none”. At HRH2 [3], the “% Response Average” value stood at 3.2%, the “% Response Replicate 1” value came to 4.3% and the “% Response Replicate 2” value came out at 2.0%. Further, on HRH1 [4], the “% Response Average” value is given as 78.2%, the “% Response Replicate 1” value is on record as 77.0%, the “% Response Replicate 2” value was determined as 79.3% and the “antagonist activity against H1 (in words)” value is reported as “showed antagonist activity”.
